Assay results as given in patent US20190085024A1, “Alpha-Ketoamide Inhibitors Of Cysteine Proteases” (Phelix Therapeutics, priority 2017, published 2019).
*1 amine or outer side, *2 acyl side, *3 side chain or, on linkers, in order; H or OH if unused. Where a SMILES comes first, the peptide text is derived from it. [ ]: non-standard residue; d: D form. The star is where a group is joined. ξ: configuration not given here. ξβ3hPhe(2-oxo) = O=C(C(=O)[*:2])C(Cc1ccccc1)N[*:1]; ξ3Amino2oxobutanoyl = CC(N[*:1])C(=O)C(=O)[*:2]; 2Nal = N[CH](Cc1ccc2ccccc2c1)C(=O)O; Cbz = O=C(OCc1ccccc1)*

Tests used:
[1] = biological target: Cathepsin L (Homo sapiens, UniProt P07711); assay: Cathepsin L enzyme assay; assay type: biochemical; details: Ki by Morrison equation; pH 5.5, substrate Z-Phe-Arg-Amc; read-out: Cat L
Excerpt: Two wells contained DMSO only for controls.
Velocity was converted to μM/sec.

[2] = biological target: Calpain; assay: Calpain enzyme assay; assay type: biochemical; details: Ki by Morrison equation; pH 7.5, 5 mM CaCl2
[3] = biological target: Cathepsin B (Homo sapiens, UniProt P07858); assay: Cathepsin B enzyme assay; details: Cat B (μM), Ki by Morrison equation; pH 6.0, substrate Z-Phe-Arg-Amc
[4] = tested on: MERS WT; assay: microbe, parasite or virus in culture; assay type: cell-based; details: Middle East respiratory syndrome-related coronavirus, read-out: MERS WT (μM)

Sequence of Cathepsin L (P07711 114-333, species assumed): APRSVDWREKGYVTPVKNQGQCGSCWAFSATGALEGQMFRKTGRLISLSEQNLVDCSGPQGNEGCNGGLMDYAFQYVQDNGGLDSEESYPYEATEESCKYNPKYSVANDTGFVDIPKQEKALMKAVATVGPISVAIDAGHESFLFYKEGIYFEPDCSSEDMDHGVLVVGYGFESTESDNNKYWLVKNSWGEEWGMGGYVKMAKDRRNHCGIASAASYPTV

| Compound | Ki [1] [nM] | Ki [2] [nM] | Ki [3] [µM] | IC50 [4] [µM] |
| --- | --- | --- | --- | --- |
| CC[C@H](C)[C@H](NC(=O)C(=O)C(C)(C)NC(=O)[C@H](Cc1ccccc1)NC(=O)Cc1ccccc1)C(=O)NC(C)(C)C(=O)O [PHELIX160, 12-benzyl-5-(sec-butyl)-2,2,9,9-tetramethyl-4,7,8,11,14-pentaoxo-15-phenyl-3,6,10,13-tetraazapentadecanoic acid] | 63400 | 51000 | 111 | – |
| CCC(C)C(NC(=O)C(=O)C(C)NC(=O)CCNC(=O)OCc1ccccc1)C(=O)NC(C)(C)C(=O)O (centres unmarked) [PHELIX164, 13-(sec-butyl)-9,16,16-trimethyl-3,7,10,11,14-pentaoxo-1-phenyl-2-oxa-4,8,12,15-tetraazaheptadecan-17-oic acid] | > 1000 | > 100000 | 34.6 | – |
| CC(NC(=O)C(Cc1ccccc1)NC(=O)Cc1ccccc1)C(=O)C(=O)NC(CC1CC1)C(=O)NC(C)(C)C(=O)O (centres unmarked) [PHELIX166, 12-benzyl-5-(cyclopropylmethyl)-2,2,9-trimethyl-4,7,8,11,14-pentaoxo-15-phenyl-3,6,10,13-tetraazapentadecanoic acid] | 586 | > 100000 | 0.0081 | – |
| CCC(C)C(NC(=O)C(=O)C(C)NC(=O)C(Cc1cccc(C(F)(F)F)c1)NC(=O)Cc1ccccc1)C(=O)NC(C)(C)C(=O)O (centres unmarked) [PHELIX170, 5-(sec-butyl)-2,2,9-trimethyl-4,7,8,11,14-pentaoxo-15-phenyl-12-(3-(trifluoro-methyl)benzyl)-3,6,10,13-tetraazapentadecanoic acid] | 1190 | 59700 | 0.022 | – |
| CCC(C)C(NC(=O)C(=O)C(C)NC(=O)C(CC(C)C)NC(=O)Cc1ccccc1)C(=O)NC(C)(C)C(=O)O (centres unmarked) [PHELIX171, 5-(sec-butyl)-12-isobutyl-2,2,9-trimethyl-4,7,8,11,14-pentaoxo-15-phenyl-3,6,10,13-tetraazapentadecanoic acid] | 632 | 3900 | 0.56 | – |
| CCC(C)C(NC(=O)C(=O)C(C)NC(=O)[C@H](Cc1cncs1)NC(=O)Cc1ccccc1)C(=O)NC(C)(C)C(=O)O (stereo partly drawn) [PHELIX173, (12S)-5-(sec-butyl)-2,2,9-trimethyl-4,7,8,11,14-pentaoxo-15-phenyl-12-(thiazol-5-ylmethyl)-3,6,10,13-tetraazapentadecanoic acid] | 3330 | > 100000 | 0.72 | – |
| CCCC(NC(=O)C(=O)C(C)NC(=O)C(Cc1ccccc1)NC(=O)Cc1ccccc1)C(=O)NC(C)(C)C(N)=O (centres unmarked) [PHELIX243, N-(1-amino-2-methyl-1-oxopropan-2-yl)-2-(2-oxo-3-(3-phenyl-2-(2-phenylacetamido)propanamido)butanamido)pentanamide] | 5580 | > 10000 | > 10 | – |
| CC(C)C[C@H](NC(=O)C(c1ccccc1)c1ccccc1)C(=O)NC(C)C(=O)C(=O)NCC(=O)N[C@@H](Cc1ccc2ccccc2c1)C(N)=O (some centres unmarked) [PHELIX251, N-(4-((2-((1-amino-3-(naphthalen-2-yl)-1-oxopropan-2-yl)amino)-2-oxoethyl)amino)-3,4-dioxobutan-2-yl)-2-(2,2-diphenylacetamido)-4-methylpentanamide] | 1.4 | 25 | 0.106 | > 30 |
| CC(C)CC(NC(=O)OCc1ccccc1)C(=O)NC(Cc1ccccc1)C(=O)C(=O)NC(C)C(=O)NC(CCC(=O)O)C(=O)NC(CCCNC(=N)N)C(N)=O (stereo not drawn) [PHELIX252, 15-((1-amino-5-guanidino-1-oxopentan-2-yl)carbamoyl)-8-benzyl-5-isobutyl-12-methyl-3,6,9,10,13-pentaoxo-1-phenyl-2-oxa-4,7,11,14-tetraazaoctadecan-18-oic acid] (Cbz-L[ξβ3hPhe(2-oxo)]AER-NH2; configuration not given here) | 5.03 | 17 | > 10 | > 30 |
| CC(C)CC(NC(=O)Cc1ccc(-c2ccccc2)cc1)C(=O)NC(C)C(=O)C(=O)NCC(=O)NC(Cc1ccc2ccccc2c1)C(N)=O (centres unmarked) [PHELIX253, 2-(2-([1,1′-biphenyl]-4-yl)acetamido)-N-(4-((2-((1-amino-3-(naphthalen-2-yl)-1-oxopropan-2-yl)amino)-2-oxoethyl)amino)-3,4-dioxobutan-2-yl)-4-methylpentanamide] | 21.5 | 21.4 | 1.17 | > 30 |
| CC(C)CC(NC(=O)OCc1ccccc1)C(=O)NC(Cc1ccccc1)C(=O)C(=O)NCC(=O)NC(Cc1ccc2ccccc2c1)C(N)=O (centres unmarked) [PHELIX256, benzyl (1-((4-((2-((1-amino-3-(naphthalen-2-yl)-1-oxopropan-2-yl)amino)-2-oxoethyl)amino)-3,4-dioxo-1-phenylbutan-2-yl)amino)-4-methyl-1-oxopentan-2-yl)carbamate] | 1.47 | 12.2 | 0.24 | 4.97 |
| CC(C)CC(NC(=O)C(Cc1ccccc1)NC(=O)OCc1ccccc1)C(=O)NC(C)C(=O)C(=O)NCC(=O)NC(Cc1ccc2ccccc2c1)C(N)=O (centres unmarked) [PHELIX258, benzyl (1-amino-12-isobutyl-9-methyl-2-(naphthalen-2-ylmethyl)-1,4,7,8,11,14-hexaoxo-16-phenyl-3,6,10,13-tetraazahexadecan-15-yl)carbamate] (Cbz-FL[ξ3Amino2oxobutanoyl]G[2Nal]-NH2; configuration not given here) | 6.14 | 1.9 | 0.42 | – |
| CC(NC(=O)C(Cc1ccccc1)NC(=O)Cc1ccccc1)C(=O)C(=O)NC(CC1CCCCC1)C(=O)NC(Cc1ccc(-c2ccccc2)cc1)C(N)=O (centres unmarked) [PHELIX259, N-(1-((3-([1,1′-biphenyl]-4-yl)-1-amino-1-oxopropan-2-yl)amino)-3-cyclohexyl-1-oxopropan-2-yl)-2-oxo-3-(3-phenyl-2-(2-phenylacetamido)propanamido)butanamide] | 1.93 | > 10000 | > 10 | 1.1 |
| CC(NC(=O)C(Cc1ccccc1)NC(=O)Cc1ccccc1)C(=O)C(=O)NC(CC1CC1)C(=O)NC(Cc1ccc(-c2ccccc2)cc1)C(N)=O (centres unmarked) [PHELIX260, N-(1-((3-([1,1′-biphenyl]-4-yl)-1-amino-1-oxopropan-2-yl)amino)-3-cyclopropyl-1-oxopropan-2-yl)-2-oxo-3-(3-phenyl-2-(2-phenylacetamido)propanamido)butanamide] | 0.27 | > 10000 | 0.0178 | 1.81 |
| CC(NC(=O)C(Cc1ccccc1)NC(=O)Cc1ccccc1)C(=O)C(=O)NC(Cc1ccc(C(F)(F)F)cc1)C(=O)NC(Cc1ccc(-c2ccccc2)cc1)C(N)=O (centres unmarked) [PHELIX261, N-(1-((3-([1,1′-biphenyl]-4-yl)-1-amino-1-oxopropan-2-yl)amino)-1-oxo-3-(4-(trifluoromethyl)phenyl)propan-2-yl)-2-oxo-3-(3-phenyl-2-(2-phenylacetamido)propanamido)butanamide] | 2.48 | > 10000 | > 10 | 2.56 |
| CC(NC(=O)C(Cc1ccccc1)NC(=O)Cc1ccccc1)C(=O)C(=O)NC(Cc1ccc(F)cc1)C(=O)NC(Cc1ccc(-c2ccccc2)cc1)C(N)=O (centres unmarked) [PHELIX262] | 0.04 | > 10000 | 0.435 | – |
| CC(NC(=O)C(Cc1ccccc1)NC(=O)Cc1ccccc1)C(=O)C(=O)NC(Cc1ccccc1F)C(=O)NC(Cc1ccc(-c2ccccc2)cc1)C(N)=O (centres unmarked) [PHELIX263, N-(1-((3-([1,1′-biphenyl]-4-yl)-1-amino-1-oxopropan-2-yl)amino)-3-(2-fluorophenyl)-1-oxopropan-2-yl)-2-oxo-3-(3-phenyl-2-(2-phenylacetamido)propanamido)butanamide] | 0.06 | > 10000 | 0.6 | 0.99 |
| CC(NC(=O)C(Cc1ccccc1)NC(=O)Cc1ccccc1)C(=O)C(=O)NC(Cc1cccc(C(F)(F)F)c1)C(=O)NC(Cc1ccc(-c2ccccc2)cc1)C(N)=O (centres unmarked) [PHELIX264, N-(1-((3-([1,1′-biphenyl]-4-yl)-1-amino-1-oxopropan-2-yl)amino)-1-oxo-3-(3-(trifluoromethyl)phenyl)propan-2-yl)-2-oxo-3-(3-phenyl-2-(2-phenylacetmido)propanamido)butanamide] | 1.91 | > 10000 | > 10 | 2.68 |
| CC(NC(=O)C(Cc1ccccc1)NC(=O)Cc1ccccc1)C(=O)C(=O)NC(Cc1ccccc1C(F)(F)F)C(=O)NC(Cc1ccc(-c2ccccc2)cc1)C(N)=O (centres unmarked) [PHELIX265, N-(1-((3-([1,1′-biphenyl]-4-yl)-1-amino-1-oxopropan-2-yl)amino)-1-oxo-3-(2-(trifluoromethyl)phenyl)propan-2-yl)-2-oxo-3-(3-phenyl-2-(2-phenylacetamido)propanamido)butanamide] | 302 | > 10000 | > 10 | 2.2 |
| CC(NC(=O)C(Cc1ccccc1)NC(=O)Cc1ccccc1)C(=O)C(=O)NC(Cc1cccc(F)c1)C(=O)NC(Cc1ccc(-c2ccccc2)cc1)C(N)=O (centres unmarked) [PHELIX266, N-(1-((3-([1,1′-biphenyl]-4-yl)-1-amino-1-oxopropan-2-yl)amino)-3-(3-fluorophenyl)-1-oxopropan-2-yl)-2-oxo-3-(3-phenyl-2-(2-phenylacetamido)propanamido)butanamide] | 0.14 | > 10000 | > 10 | 0.78 |
| CCC(C)C(NC(=O)C(CC(C)C)NC(=O)OCc1ccccc1)C(=O)C(=O)NC(CCCNC(N)=O)C(=O)NC(Cc1ccc2ccccc2c1)C(N)=O (centres unmarked) [PHELIX315, benzyl (1-((1-((1-((1-amino-3-(naphthalen-2-yl)-1-oxopropan-2-yl)amino)-1-oxo-5-ureidopentan-2-yl)amino)-4-methyl-1,2-dioxohexan-3-yl)amino)-4-methyl-1-oxopentan-2-yl)carbamate] | 0.47 | 1.48 | > 10 | – |
